Columns and labels:
LXRα (pGAL-hLXRα-LBD) = biological target: T1, LXRα (pGAL-hLXRα-LBD) (Homo sapiens, UniProt Q13133); assay: Transient transfection assay (luciferase reporter) in HEK293 / NIH3T3 cells; type: cell-based; conditions: increasing amounts of compound, without RXRα expression plasmid (Fig. 1)
T1 construct: 수용체 발현 벡터(pGAL-hLXRα-LBD); expressed in transfected cells; host or cells: HEK293 or NIH3T3 cells
T1 sequence (Q13133 209-447 limits assumed): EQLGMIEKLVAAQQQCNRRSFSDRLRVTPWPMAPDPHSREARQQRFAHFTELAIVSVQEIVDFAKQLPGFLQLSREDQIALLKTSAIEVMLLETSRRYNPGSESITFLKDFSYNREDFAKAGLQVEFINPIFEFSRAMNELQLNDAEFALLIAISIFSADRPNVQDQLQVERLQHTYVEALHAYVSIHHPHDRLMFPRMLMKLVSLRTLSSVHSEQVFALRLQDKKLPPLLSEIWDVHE

[1] = biological target: T2, LXRα ligand-binding domain [LXRα 리간드-결합 도메인] (GST-LXRα-LBD) (Homo sapiens, UniProt Q13133); assay: Fluorescence polarization assay (rhodamine-labelled LXXLL peptide recruitment to GST-LXRα-LBD); type: biochemical; conditions: 10 nM rhodamine-labelled peptide, 200 nM GST-LXRα-LBD, overnight (Fig. 2)
T2 construct: LXRα 리간드-결합 도메인을 글루타치온 S-트랜스퍼라제(GST)의 C-말단에 융합시키고; made in house; host or cells: E. coli
T2 sequence (Q13133 209-447 limits assumed): T1 sequence (Q13133 209-447 limits assumed)

CYP7A = CYP7A assay in liver of orally dosed mice; type: in vivo, C57BL/6J mouse; conditions: C57BL/6J mice (n=6), single oral administration, liver taken after 8 h; dose not given
[2] = Plasma lipid change experiment in mice; type: in vivo, C57BL/6J mouse; conditions: 14 days, C57BL/6J mice (n=6), blood 6 h after last dose

| luciferase activity (LXRα-mediated transcription) (LXRα (pGAL-hLXRα-LBD)) | SMILES | fluorescence polarization activity (coactivator peptide recruitment) [1] | increase in CYP7A activity in liver (CYP7A) | increase in plasma HDL cholesterol ([2]; 30 mg/kg oral) | increase in plasma HDL cholesterol ([2]; 100 mg/kg oral) |
| --- | --- | --- | --- | --- | --- |
| 용량 의존적으로 루시퍼라제 활성이 증가하였다 | Cc1c(/C=C(\C#N)S(=O)(=O)c2ccccc2)cc(C(C)C)n1-c1ccccc1C(F)(F)F [#44, (E)-2-페닐설포닐-3-[1-(2-트리플루오로메틸페닐)-2-메틸-5-이소프로필피롤-3-일]아크릴로니트릴] |  |  |  |  |
| 용량 의존적으로 루시퍼라제 활성이 증가하였다 | COC(=O)c1cccc(S(=O)(=O)/C(C#N)=C/c2cc(C(C)C)n(-c3ccccc3C(F)(F)F)c2C)c1 [#182, (E)-2-(3-메톡시카보닐페닐)설포닐-3-[1-(2-트리플루오로메틸페닐)-2-메틸-5-이소프로필피롤-3-일]아크릴로니트릴] |  |  |  |  |
| 용량 의존적으로 루시퍼라제 활성이 증가하였다 | O=S(=O)(c1ccccc1)N(CC(F)(F)F)c1ccc(C(O)(C(F)(F)F)C(F)(F)F)cc1 [T0901317, reference compound] | 가장 높은 활성을 나타내었고 |  |  |  |

Further lines, the compound ahead of its results:

| SMILES | luciferase activity (LXRα-mediated transcription) (LXRα (pGAL-hLXRα-LBD)) | fluorescence polarization activity (coactivator peptide recruitment) [1] | increase in CYP7A activity in liver (CYP7A) | increase in plasma HDL cholesterol ([2]; 30 mg/kg oral) | increase in plasma HDL cholesterol ([2]; 100 mg/kg oral) |
| --- | --- | --- | --- | --- | --- |
| CC(C)CC[C@@H](O)[C@@H](C)[C@H]1CC[C@H]2[C@@H]3CC=C4C[C@@H](O)CC[C@]4(C)[C@H]3CC[C@]12C [22(R)-하이드록시콜레스테롤, reference compound] | 용량 의존적으로 루시퍼라제 활성이 증가하였다 | 형광의 증가를 나타내었다 |  |  |  |
| CC(C)c1cc(/C=C(\C#N)S(=O)(=O)c2ccccc2)cn1-c1ccccc1C(F)(F)F [#189, (E)-2-페닐설포닐-3-[1-(2-트리플루오로메틸페닐)-5-이소프로필피롤-3-일]아크릴로니트릴] |  |  | 91% | 18% | 41% |
